# Test results published in the OPERA property sets (Mansouri et al. 2018).
# Details: not given
SMILES,melting point,boiling point,log10 vapour pressure (mmHg),ready biodegradability,log10 biodegradation half-life (days),log10 Koc (L/kg),log10 Henry constant (atm·m³/mol),log10 Koa
CC(C)C1(Cc2ccco2)C(=O)NC(=O)NC1=O,169 °C,,,,,,,
C[N+](C)(C)CCOC(=O)CCC(=O)OCC[N+](C)(C)C.[Br-].[Br-],225 °C,,,,,,,
CC(C)(C)N=C=S,10.5 °C,140 °C,,,,,,
CCCCCCCCCCCCCCCCCCCCCCCCCCCCCCO,88 °C,,,,,,,
CCN1C(=O)C=CC1=O,45.5 °C,,,,,,,
CCOC(=O)C(CCC(C)C)C(=O)OCC,,241 °C,,,,,,
BrCCCCOc1ccccc1,41 °C,,,,,,,
Clc1cccc2cccnc12,-20 °C,288 °C,,,,,,
CCCC=C(C=O)CC,,195 °C,0.107,readily biodegradable,,,,
OCc1ccccc1O,87 °C,,,not readily biodegradable,,,,
Oc1ccc(Cl)c(Cl)c1Cl,83.5 °C,,,,,,,
CC(=O)c1ccc(Cl)cc1Cl,33.5 °C,,,,,,,
c1cscn1,,118 °C,1.23,,,,,
COc1ccc(C(=O)O)cc1,185 °C,276 °C,,readily biodegradable,,,,
Cc1cc(O)c(C(C)(C)C)cc1C,46 °C,258 °C,,,,,,
O=S(=O)(Cl)c1ccc(F)cc1,30 °C,,,,,,,
COc1ccc(-c2ccccc2)cc1,90 °C,,,,,,,
FC(F)(F)CI,,54.5 °C,,,,,,
c1ccc2c(c1)c1cccc3ccc4cccc2c4c31,178 °C,,-8.24,,2.56,,,
CCOC(=O)c1c(Cl)c(Cl)c(Cl)c(Cl)c1C(=O)O,94.5 °C,,,,,,,
C[N+]1(CCC(C(N)=O)(c2ccccc2)c2ccccc2)CCCCC1.[Br-],178 °C,,,,,,,
COCCOCCOC,-68 °C,162 °C,0.471,not readily biodegradable,,,,
C#CC(C)C,-89.7 °C,26.3 °C,,,,,,
CC(=O)[C@H]1CC[C@H]2[C@@H]3CC[C@H]4C[C@H](N)CC[C@]4(C)[C@H]3CC[C@]12C,126 °C,,,,,,,
CCCCC(C(N)=O)n1nnc2ccccc21 (configuration not stated),118 °C,,,,,,,
CCCCCCCCCCCCCCCCCCCCCCCCCCCCO,83.3 °C,,,readily biodegradable,,,,

SMILES,melting point,boiling point,log10 vapour pressure (mmHg),ready biodegradability,log10 biodegradation half-life (days),log10 Koc (L/kg),log10 Henry constant (atm·m³/mol),log10 Koa
OCCNC(=S)C(=S)NCCO,93.3 °C,,,,,,,
NC(=O)Nc1ccc(Oc2ccccc2)cc1,,,,,,2.56,,
Oc1ccc(Cl)c(Cl)c1,68 °C,253 °C,,not readily biodegradable,,3.09,,
O=C(O)c1ccc(C(=O)O)o1,342 °C,,,,,,,
COC(=O)c1cccc(C)c1,,221 °C,,,,,,
Clc1ccc(-c2ccc(Cl)c(Cl)c2)cc1Cl,,,-4.78,,,,-5.03,9.7
OCCCC(F)(F)F,,125 °C,,,,,,
C=CC(=O)CC,,103 °C,,,,,,
CCNCCNCC,,146 °C,,,,,,
NCc1ccccn1,,203 °C,,,,,,
C=C/C=C\CC1=C(C)[C@@H](OC(=O)[C@@H]2[C@@H](/C=C(\C)C(=O)OC)C2(C)C)CC1=O,,,-6.4,,,,,
CC(C)(C)OC(=O)C1(S(=O)(=O)c2ccc(Cl)cc2)CC1,110 °C,,,,,,,
CCc1c(C)c[nH]c1C,0 °C,199 °C,,,,,,
O=[N+]([O-])c1ccc(-c2ccccc2)cc1,114 °C,340 °C,,,,,,
c1ccc2[nH]ncc2c1,148 °C,269 °C,,,,,,
Cc1ccc(S)c(S)c1,29 °C,,,,,,,
Cc1cc(NS(=O)(=O)c2ccc(N)cc2)nc(C)n1,243 °C,,,,,,,
Cc1cc(C(C)(C)C)c(O)c(C)c1CC1=NCCN1,182 °C,,,,,,,
CCC(C)C(C(=O)OCC[N+](C)(CC)CC)c1ccccc1.[Br-] (configuration not stated),102 °C,,,,,,,
Nc1ccc(C(F)(F)F)cc1,38 °C,,,,,,,
O=Cc1ccc([N+](=O)[O-])cc1,107 °C,,,,,,,
CCCNC(=O)NS(=O)(=O)c1ccc(Cl)cc1,128 °C,,,,,,,
CC(O)=S,,93 °C,,,,,,
CC(C)S[C@@H]1O[C@H](CO)[C@H](O)[C@H](O)[C@H]1O,121 °C,,,,,,,
CCC(Br)C(C)Br (configuration not stated),-56 °C,178 °C,,,,,,
CC(C)[C@@H](Br)C(=O)O,44 °C,230 °C,,,,,,

# Same assay, conditions: fish
SMILES,log10 BCF,log10 biotransformation half-life (days)
Oc1ccc(Cl)c(Cl)c1,1.69,-0.92
Clc1ccc(-c2ccc(Cl)c(Cl)c2)cc1Cl,4.62,1.35
